Source: ChEMBL document CHEMBL1697731, “Cheminformatics analysis of assertions mined from literature that describe drug-induced liver injury in different species” (Chem Res Toxicol, 2010)

Legend:
Hepatotoxicity [1] = test: Literature-mined compound from Fourches et al multi-species drug-induced liver injury (DILI) dataset, effect in non-rodents
Hepatotoxicity [2] = test: Literature-mined compound from Fourches et al multi-species drug-induced liver injury (DILI) dataset, effect in rodents; conditions: rodentia
Hepatotoxicity [3] = test: Literature-mined compound from Fourches et al multi-species drug-induced liver injury (DILI) dataset, effect in humans; conditions: human

For `CCCCCCCCCCC[C@@H](C[C@@H]1OC(=O)[C@H]1CCCCCC)OC(=O)[C@H](CC(C)C)NC=O` [ORLISTAT], the Hepatotoxicity (Hepatotoxicity [1]) was “no drug-induced liver injury reported”, the Hepatotoxicity (Hepatotoxicity [2]) was “no drug-induced liver injury reported” and the Hepatotoxicity (Hepatotoxicity [3]) was “drug-induced liver injury reported”.
`OC(O)C(Cl)(Cl)Cl` [CHLORAL HYDRATE] was tested, and the Hepatotoxicity (Hepatotoxicity [1]; Liver) was “no drug-induced liver injury reported”, the Hepatotoxicity (Hepatotoxicity [2]; Liver) was “drug-induced liver injury reported” and the Hepatotoxicity (Hepatotoxicity [3]; Liver) was “drug-induced liver injury reported”.
In the case of `CCc1oc2ccccc2c1C(=O)c1cc(Br)c(O)c(Br)c1` [BENZBROMARONE], the Hepatotoxicity (Hepatotoxicity [1]) is reported as “no drug-induced liver injury reported”, the Hepatotoxicity (Hepatotoxicity [2]) is reported as “drug-induced liver injury reported” and the Hepatotoxicity (Hepatotoxicity [3]) is reported as “drug-induced liver injury reported”.
For `CC(C(=O)O)c1ccc2oc(-c3ccc(Cl)cc3)nc2c1` (stereo not drawn) [BENOXAPROFEN], the Hepatotoxicity (Hepatotoxicity [1]) was “no drug-induced liver injury reported”, the Hepatotoxicity (Hepatotoxicity [2]) was “drug-induced liver injury reported” and the Hepatotoxicity (Hepatotoxicity [3]) was “drug-induced liver injury reported”.
With `CC(O)(CS(=O)(=O)c1ccc(F)cc1)C(=O)Nc1ccc(C#N)c(C(F)(F)F)c1` (stereo not drawn) [BICALUTAMIDE] the Hepatotoxicity (Hepatotoxicity [1]) was “no drug-induced liver injury reported”, the Hepatotoxicity (Hepatotoxicity [2]) was “no drug-induced liver injury reported” and the Hepatotoxicity (Hepatotoxicity [3]) was “drug-induced liver injury reported”.
With `CC(C)(C(=O)c1cccnc1)c1cccnc1` [METYRAPONE] the Hepatotoxicity (Hepatotoxicity [1]; Liver) was “no drug-induced liver injury reported”, the Hepatotoxicity (Hepatotoxicity [2]; Liver) was “drug-induced liver injury reported” and the Hepatotoxicity (Hepatotoxicity [3]; Liver) was “drug-induced liver injury reported”.
For `O=C(O)C[C@H](O)C[C@H](O)/C=C/c1c(C2CC2)nc2ccccc2c1-c1ccc(F)cc1` [PITAVASTATIN], the Hepatotoxicity (Hepatotoxicity [1]) was “no drug-induced liver injury reported”, the Hepatotoxicity (Hepatotoxicity [2]) was “drug-induced liver injury reported” and the Hepatotoxicity (Hepatotoxicity [3]) was “drug-induced liver injury reported”.
For `CNC(=O)Oc1ccc2c(c1)[C@]1(C)CCN(C)[C@@H]1N2C` [PHYSOSTIGMINE], the Hepatotoxicity (Hepatotoxicity [1]) was “no drug-induced liver injury reported”, the Hepatotoxicity (Hepatotoxicity [2]) was “drug-induced liver injury reported” and the Hepatotoxicity (Hepatotoxicity [3]) was “no drug-induced liver injury reported”.
For `CC1=C(/C=C/C(C)=C/C=C/C(C)=C/C=C/C=C(C)/C=C/C=C(C)/C=C/C2=C(C)C(=O)[C@@H](O)CC2(C)C)C(C)(C)C[C@H](O)C1=O` [ASTAXANTHIN], the Hepatotoxicity (Hepatotoxicity [1]) was “no drug-induced liver injury reported”, the Hepatotoxicity (Hepatotoxicity [2]) was “drug-induced liver injury reported” and the Hepatotoxicity (Hepatotoxicity [3]) was “no drug-induced liver injury reported”.
With `CCCCCc1cc(O)c2c(c1)OC(C)(C)[C@@H]1CCC(C)=C[C@@H]21` [DRONABINOL] the Hepatotoxicity (Hepatotoxicity [1]) was “no drug-induced liver injury reported”, the Hepatotoxicity (Hepatotoxicity [2]) was “drug-induced liver injury reported” and the Hepatotoxicity (Hepatotoxicity [3]) was “drug-induced liver injury reported”.
For `COC1=C(OC)C(=O)C(CCCCCCCCCCO)=C(C)C1=O` [IDEBENONE], the Hepatotoxicity (Hepatotoxicity [1]) was “no drug-induced liver injury reported”, the Hepatotoxicity (Hepatotoxicity [2]) was “drug-induced liver injury reported” and the Hepatotoxicity (Hepatotoxicity [3]) was “no drug-induced liver injury reported”.
`CC1(C)C2CCC1(CS(=O)(=O)[O-])C(=O)C2.O=C1N(Cc2ccccc2)C2C[S+]3CCCC3C2N1Cc1ccccc1` (stereo not drawn) [TRIMETHAPHAN CAMSYLATE] was tested, and the Hepatotoxicity (Hepatotoxicity [1]) was “drug-induced liver injury reported”, the Hepatotoxicity (Hepatotoxicity [2]) was “no drug-induced liver injury reported” and the Hepatotoxicity (Hepatotoxicity [3]) was “no drug-induced liver injury reported”.
In the case of `C#C[C@]1(OC(C)=O)CC[C@H]2[C@@H]3CCC4=CC(=O)CC[C@@H]4[C@H]3CC[C@@]21C` [NORETHINDRONE ACETATE], the Hepatotoxicity (Hepatotoxicity [1]) is reported as “drug-induced liver injury reported”, the Hepatotoxicity (Hepatotoxicity [2]) is reported as “drug-induced liver injury reported” and the Hepatotoxicity (Hepatotoxicity [3]) is reported as “no drug-induced liver injury reported”.
`N[C@@H](C(=O)N[C@@H]1C(=O)N2C(C(=O)O)=C(Cl)CS[C@H]12)c1ccccc1` [CEFACLOR ANHYDROUS] was tested, and the Hepatotoxicity (Hepatotoxicity [1]) was “no drug-induced liver injury reported”, the Hepatotoxicity (Hepatotoxicity [2]) was “no drug-induced liver injury reported” and the Hepatotoxicity (Hepatotoxicity [3]) was “drug-induced liver injury reported”.
With `Nc1nc2c(ncn2CCC(CO)CO)c(=O)[nH]1` [PENCICLOVIR] the Hepatotoxicity (Hepatotoxicity [1]) was “no drug-induced liver injury reported”, the Hepatotoxicity (Hepatotoxicity [2]) was “no drug-induced liver injury reported” and the Hepatotoxicity (Hepatotoxicity [3]) was “drug-induced liver injury reported”.
In the case of `CC(C)(Oc1ccc(CCNC(=O)c2ccc(Cl)cc2)cc1)C(=O)O` [BEZAFIBRATE], the Hepatotoxicity (Hepatotoxicity [1]) is reported as “no drug-induced liver injury reported”, the Hepatotoxicity (Hepatotoxicity [2]) is reported as “drug-induced liver injury reported” and the Hepatotoxicity (Hepatotoxicity [3]) is reported as “drug-induced liver injury reported”.
For `OC[C@H]1O[C@@H](O[C@@H]2[C@@H](CO)O[C@](O)(CO)[C@H]2O)[C@H](O)[C@@H](O)[C@H]1O` [LACTULOSE], the Hepatotoxicity (Hepatotoxicity [1]) was “no drug-induced liver injury reported”, the Hepatotoxicity (Hepatotoxicity [2]) was “drug-induced liver injury reported” and the Hepatotoxicity (Hepatotoxicity [3]) was “drug-induced liver injury reported”.
`CC[C@H]1OC(=O)[C@H](C)[C@@H](O[C@H]2C[C@@](C)(OC)[C@@H](O)[C@H](C)O2)[C@H](C)[C@@H](O[C@@H]2O[C@H](C)C[C@H](N(C)C)[C@H]2O)[C@](C)(O)C[C@@H](C)C(=O)[C@H](C)[C@@H](O)[C@]1(C)O` [ERYTHROMYCIN] was tested, and the Hepatotoxicity (Hepatotoxicity [1]) was “no drug-induced liver injury reported”, the Hepatotoxicity (Hepatotoxicity [2]) was “drug-induced liver injury reported” and the Hepatotoxicity (Hepatotoxicity [3]) was “drug-induced liver injury reported”.
For VITAMIN K, the Hepatotoxicity (Hepatotoxicity [1]) was “no drug-induced liver injury reported”, the Hepatotoxicity (Hepatotoxicity [2]) was “drug-induced liver injury reported” and the Hepatotoxicity (Hepatotoxicity [3]) was “drug-induced liver injury reported”.
In the case of `O=P1(NCCCl)OCCCN1CCCl` (stereo not drawn) [IFOSFAMIDE], the Hepatotoxicity (Hepatotoxicity [1]) is reported as “no drug-induced liver injury reported”, the Hepatotoxicity (Hepatotoxicity [2]) is reported as “no drug-induced liver injury reported” and the Hepatotoxicity (Hepatotoxicity [3]) is reported as “drug-induced liver injury reported”.
With `CCOC(=O)C1=C(C)NC(C)=C(C(=O)OC)C1c1cccc([N+](=O)[O-])c1` (stereo not drawn) [NITRENDIPINE] the Hepatotoxicity (Hepatotoxicity [1]) was “no drug-induced liver injury reported”, the Hepatotoxicity (Hepatotoxicity [2]) was “drug-induced liver injury reported” and the Hepatotoxicity (Hepatotoxicity [3]) was “drug-induced liver injury reported”.
For `CC1(C)[C@@H](O)CC[C@]2(C)[C@H]3C(=O)C=C4[C@@H]5C[C@@](C)(C(=O)O)CC[C@]5(C)CC[C@@]4(C)[C@]3(C)CC[C@@H]12` [ENOXOLONE], the Hepatotoxicity (Hepatotoxicity [1]) was “no drug-induced liver injury reported”, the Hepatotoxicity (Hepatotoxicity [2]) was “drug-induced liver injury reported” and the Hepatotoxicity (Hepatotoxicity [3]) was “drug-induced liver injury reported”.
With `CN(C)CCCN1c2ccccc2CCc2ccccc21` [IMIPRAMINE] the Hepatotoxicity (Hepatotoxicity [1]) was “no drug-induced liver injury reported”, the Hepatotoxicity (Hepatotoxicity [2]) was “drug-induced liver injury reported” and the Hepatotoxicity (Hepatotoxicity [3]) was “drug-induced liver injury reported”.
In the case of `CC(S)C(=O)NCC(=O)O` (stereo not drawn) [TIOPRONIN], the Hepatotoxicity (Hepatotoxicity [1]) is reported as “no drug-induced liver injury reported”, the Hepatotoxicity (Hepatotoxicity [2]) is reported as “drug-induced liver injury reported” and the Hepatotoxicity (Hepatotoxicity [3]) is reported as “drug-induced liver injury reported”.
`[H]/N=C(/N)N[C@H]1[C@H](O)[C@@H](O)[C@H](O[C@@H]2O[C@@H](C)[C@](O)(C=O)[C@H]2O[C@@H]2O[C@@H](CO)[C@H](O)[C@@H](O)[C@@H]2NC)[C@@H](N/C(N)=N\[H])[C@@H]1O` [STREPTOMYCIN] was tested, and the Hepatotoxicity (Hepatotoxicity [1]; Liver) was “drug-induced liver injury reported”, the Hepatotoxicity (Hepatotoxicity [2]; Liver) was “drug-induced liver injury reported” and the Hepatotoxicity (Hepatotoxicity [3]; Liver) was “drug-induced liver injury reported”.
For `CCC1(C2=CCCCC2)C(=O)NC(=O)NC1=O` [CYCLOBARBITAL], the Hepatotoxicity (Hepatotoxicity [1]) was “no drug-induced liver injury reported”, the Hepatotoxicity (Hepatotoxicity [2]) was “drug-induced liver injury reported” and the Hepatotoxicity (Hepatotoxicity [3]) was “no drug-induced liver injury reported”.
For `COc1cc(CNC(=O)CCCC/C=C/C(C)C)ccc1O` [CAPSAICIN], the Hepatotoxicity (Hepatotoxicity [1]) was “no drug-induced liver injury reported”, the Hepatotoxicity (Hepatotoxicity [2]) was “drug-induced liver injury reported” and the Hepatotoxicity (Hepatotoxicity [3]) was “drug-induced liver injury reported”.
`CN1C(=O)CN=C(c2ccccc2)c2cc(Cl)ccc21` [DIAZEPAM] was tested, and the Hepatotoxicity (Hepatotoxicity [1]; Liver) was “drug-induced liver injury reported”, the Hepatotoxicity (Hepatotoxicity [2]; Liver) was “drug-induced liver injury reported” and the Hepatotoxicity (Hepatotoxicity [3]; Liver) was “drug-induced liver injury reported”.
With `COc1ccc2[nH]c([S+]([O-])Cc3ncc(C)c(OC)c3C)nc2c1` (stereo not drawn) [OMEPRAZOLE] the Hepatotoxicity (Hepatotoxicity [1]) was “no drug-induced liver injury reported”, the Hepatotoxicity (Hepatotoxicity [2]) was “drug-induced liver injury reported” and the Hepatotoxicity (Hepatotoxicity [3]) was “drug-induced liver injury reported”.
In the case of `O=C(O)C(Cl)(Cl)Cl` [TRICHLOROACETIC ACID], the Hepatotoxicity (Hepatotoxicity [1]) is reported as “no drug-induced liver injury reported”, the Hepatotoxicity (Hepatotoxicity [2]) is reported as “drug-induced liver injury reported” and the Hepatotoxicity (Hepatotoxicity [3]) is reported as “no drug-induced liver injury reported”.
`CCCC(C)(COC(N)=O)COC(=O)NC(C)C` (stereo not drawn) [CARISOPRODOL] was tested, and the Hepatotoxicity (Hepatotoxicity [1]) was “no drug-induced liver injury reported”, the Hepatotoxicity (Hepatotoxicity [2]) was “drug-induced liver injury reported” and the Hepatotoxicity (Hepatotoxicity [3]) was “no drug-induced liver injury reported”.
In the case of `CCCCC[C@H](O)/C=C/[C@H]1[C@H](O)CC(=O)[C@@H]1CCCCCCC(=O)O` [ALPROSTADIL], the Hepatotoxicity (Hepatotoxicity [1]) is reported as “drug-induced liver injury reported”, the Hepatotoxicity (Hepatotoxicity [2]) is reported as “drug-induced liver injury reported” and the Hepatotoxicity (Hepatotoxicity [3]) is reported as “drug-induced liver injury reported”.
With `O=C1CN(/N=C/c2ccc([N+](=O)[O-])o2)C(=O)N1` [NITROFURANTOIN] the Hepatotoxicity (Hepatotoxicity [1]; Liver) was “drug-induced liver injury reported”, the Hepatotoxicity (Hepatotoxicity [2]; Liver) was “drug-induced liver injury reported” and the Hepatotoxicity (Hepatotoxicity [3]; Liver) was “drug-induced liver injury reported”.
`COC(=O)Nc1nc2ccc(C(=O)c3ccccc3)cc2[nH]1` [MEBENDAZOLE] was tested, and the Hepatotoxicity (Hepatotoxicity [1]) was “drug-induced liver injury reported”, the Hepatotoxicity (Hepatotoxicity [2]) was “no drug-induced liver injury reported” and the Hepatotoxicity (Hepatotoxicity [3]) was “drug-induced liver injury reported”.
For `COc1ccc2nc([S@@+]([O-])Cc3ncc(C)c(OC)c3C)[nH]c2c1` [ESOMEPRAZOLE], the Hepatotoxicity (Hepatotoxicity [1]) was “no drug-induced liver injury reported”, the Hepatotoxicity (Hepatotoxicity [2]) was “no drug-induced liver injury reported” and the Hepatotoxicity (Hepatotoxicity [3]) was “drug-induced liver injury reported”.
With `CCC[C@@H]1C[C@@H](C(=O)N[C@@H]([C@H]2O[C@H](SC)[C@H](O)[C@@H](O)[C@H]2O)[C@H](C)Cl)N(C)C1` [CLINDAMYCIN] the Hepatotoxicity (Hepatotoxicity [1]) was “no drug-induced liver injury reported”, the Hepatotoxicity (Hepatotoxicity [2]) was “no drug-induced liver injury reported” and the Hepatotoxicity (Hepatotoxicity [3]) was “drug-induced liver injury reported”.
